For one molecule, IC50 results are on record in US20230374073A1, “DIMERIC MILLA IMMUNOMODULATORS” (Bristol-Myers Squibb Company, priority 2020, published 2023).

pIC50: −log10 of the molar value. Starred links: 1 amine or outer side, 2 acyl side, 3 side chain; linkers in the order of their positions; H or OH if unused. Positions of bridges follow the written chain, without caps; N, C: chain ends. Non-standard residues stand in square brackets, D forms with d. Residues, ends and D or L forms follow the SMILES beside them. Chains are numbered I, II in the order given. Trp(1-CH2COOH) = N[C@@H](Cc1cn(CC(=O)O)c2ccccc12)C(=O)O; X1 = O=C(NC1CCC(CC2CCC(NC(=O)[*:2])CC2)CC1)[*:1]; Hyp = O=C(O)[C@@H]1C[C@@H](O)CN1; NMeNle = CCCC[C@H](NC)C(=O)O; NMeA = CN[C@@H](C)C(=O)O; Dab = NCC[C@H](N)C(=O)O; Dap = NC[C@H](N)C(=O)O

One may read the pIC50 as the negative decadic logarithm of the IC50, by convention in mol/L. A lower pIC50 goes with a high IC50.

In the assay the target is T1, PD-1/PD-L1 (Homo sapiens, UniProt Q9NZQ7).
T1 construct: TVMV protease site (C); made in house; host or cells: HEK293T cells
T1 sequence (Q9NZQ7 18-239): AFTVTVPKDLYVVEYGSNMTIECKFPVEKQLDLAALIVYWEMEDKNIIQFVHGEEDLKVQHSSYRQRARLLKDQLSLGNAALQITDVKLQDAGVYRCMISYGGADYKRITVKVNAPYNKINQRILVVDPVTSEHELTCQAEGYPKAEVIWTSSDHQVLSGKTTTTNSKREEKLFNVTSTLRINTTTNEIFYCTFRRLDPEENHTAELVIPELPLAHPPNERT
In words: PD-1/PD-L1 Homogenous Time-Resolved Fluorescence (HTRF) binding assay. An excerpt:
The ability of the compounds of formula (I) to bind to PD-L1 was investigated using a PD-1/PD-L1 Homogenous Time-Resolved Fluorescence (HTRF) binding assay.
Homogenous Time-Resolved Fluorescence (HTRF) Binding Assay
The interaction of PD-1 and PD-L1 can be assessed using soluble, purified preparations of the extracellular domains of the two proteins. The PD-1 and PD-L1 protein extracellular domains were expressed as fusion proteins with detection tags, for PD-1, the tag was the Fc portion of Immunoglobulin (PD-1-Ig) and for PD-L1 it was the 6 histidine motif (PD-L1-His). All binding studies were performed in an HTRF assay buffer consisting of dPBS supplemented with 0.1% […] bovine serum albumin and 0.05% (v/v) Tween-20. For the h/PD-L1-His binding assay, inhibitors were pre-incubated with PD-L1-His (10 nM final) for 15 m in 4 μl of assay buffer, followed by addition of PD-1-Ig (20 nM final) in 1 μl of assay buffer and further incubation for 15 m. HTRF detection was achieved using europium crypate-labeled anti-Ig (1 nM final) and allophycocyanin (APC) labeled anti-His (20 nM final). Antibodies were diluted in HTRF detection buffer and 5 μl was dispensed on top of the binding reaction. […]
Table 1 lists the IC50 values for representative examples of this disclosure measured in the PD-1/PD-L1 Homogenous Time-Resolved Fluorescence (HTRF) binding assay.
(In general: In TR-FRET formats the signal depends on donor and acceptor labels being close together.)

Consider `CCCC[C@H]1C(=O)N(C)[C@@H](CCCC)C(=O)N[C@@H](CC(C)C)C(=O)N[C@H](C(=O)NCC(N)=O)CSCC(=O)N[C@@H](Cc2ccc(O)cc2)C(=O)N(C)[C@@H](C)C(=O)N[C@@H](CC(N)=O)C(=O)N2CCC[C@H]2C(=O)N[C@@H](CNC(=O)NC2CCC(CC3CCC(NC(=O)NC[C@@H]4NC(=O)[C@@H]5CCCN5C(=O)[C@H](CC(N)=O)NC(=O)[C@H](C)N(C)C(=O)[C@H](Cc5ccc(O)cc5)NC(=O)CSC[C@@H](C(=O)NCC(N)=O)NC(=O)[C@H](CC(C)C)NC(=O)[C@H](CCCC)N(C)C(=O)[C@H](CCCC)N(C)C(=O)[C@H](Cc5cn(CC(=O)O)c6ccccc56)NC(=O)[C@H](CCN)NC(=O)[C@H](Cc5c[nH]c6ccccc56)NC(=O)[C@@H]5C[C@@H](O)CN5C(=O)[C@H](CC(C)C)NC4=O)CC3)CC2)C(=O)N[C@@H](CC(C)C)C(=O)N2C[C@H](O)C[C@H]2C(=O)N[C@@H](Cc2c[nH]c3ccccc23)C(=O)N[C@@H](CCN)C(=O)N[C@@H](Cc2cn(CC(=O)O)c3ccccc23)C(=O)N1C` (stereo partly shown) [Compound 1002] (I: {CH2CO}-Y[NMeA]NP[Dap]L[Hyp]W[Dab][Trp(1-CH2COOH)][NMeNle][NMeNle]LCG-NH2 / II: {CH2CO}-Y[NMeA]NP[Dap]L[Hyp]W[Dab][Trp(1-CH2COOH)][NMeNle][NMeNle]LCG-NH2; linker I:5-II:5 via X1; thioether I:N-I:14, II:N-II:14), for which the pIC50 was 8.00.
